Results published in US10765638B2, “Particle formulation with polycation complex” (Yale University, priority 2017, dated 2020).

How the values were obtained:
[1] = system: non-transformed cell lines, primary human dermal fibroblasts, and neural progenitor cells; settings: Lopez-Sambrooks 2016, Hafirassou 2017, Puschnik 2017; cited from earlier work
T98G cells = test: Phospho-γH2AX foci formation after radiation; assay type: cell-based; settings: 2 hours after 4 Gy, 10 μM NGI-1
Procedure: (§1) To determine histone H2AX phosphorylation (γH2AX), cells were cultured on glass cover slips and pre-treated with either vehicle or NGI-1 for 48 hours followed by radiation treatment. Samples were fixed with 4% neutral-buffered formaldehyde, washed (0.1% triton in PBS for 30 minutes) and incubated for 1 hour with protein-blocking solution (PBS containing 10% normal goat-horse serum; Sigma-Aldrich, Saint Louis, Mich., US). Next, the slides were incubated with primary anti-phospho-histone γH2AX S139 (1:500, Millipore-Upstate, Billerica, Mass., US) followed by incubation with secondary antibody Alexa Fluor 555-conjugated goat anti-mouse IgG (1:750, Molecular probes/Invitrogen, Carlsbad, Calif., US), for 1 hour at room temperature. Nuclei were stained using DAPI containing vectashield mounting solution (Vector Labs). Confocal cellular images were captured with an inverted Zeiss LSM 510 Pascal laser confocal microscope (C. Zeiss, Jenna, Germany), using a 63/1.4 plan-apochromat objective. Five randomly selected fields s per slide were analyzed. Cells were counted using the ImageJ program, public domain Java image processing software.

D54 cells = test: Phospho-γH2AX foci formation after radiation; assay type: cell-based
Procedure: as §1

PC9-GR2 = test: Cell cycle distribution by flow cytometry; assay type: cell-based; settings: NGI-1 for 24 h, printed 80% vs 60%
Procedure: (§2) For the assessment of cell cycle distribution, 1×10^6 cells were collected, washed once with ice-cold PBS and fixed in ice-cold 70% ethanol overnight at −20° C. Thereafter, cells were washed twice with PBS and incubated for 30 min at room temperature in 200 μL of Guava Cell Cycle Reagent (Guava Technologies). Cytofluorometric acquisitions were performed on a LSRII cytometer (BD Biosciences). First-line analysis was performed with Flow Jo software, upon gating of the events characterized by normal forward and side scatter parameters and discrimination of doublets in a FSC-A vs. FSC-H bivariate plot. Approximately 30,000 cells were analyzed per experiment, and the mean value was obtained from 3 independent assays.

H1975-OR cells = test: Cell cycle distribution by flow cytometry; assay type: cell-based; settings: NGI-1 for 24 h, printed 45% vs 75%, higher value taken as NGI-1
Procedure: as §2

H1975 = test: Cell cycle distribution by flow cytometry; assay type: cell-based; settings: NGI-1 for 24 h, printed 40% vs 60%, higher value taken as NGI-1
Procedure: as §2

PC9-GR1 = test: Cell cycle distribution by flow cytometry; assay type: cell-based; settings: NGI-1 for 24 h, printed 60% vs 40%
Procedure: as §2

HCC-827-GR cells = test: Cell cycle distribution by flow cytometry; assay type: cell-based; settings: NGI-1 for 24 h, printed 75% vs 45%
Procedure: as §2

EGFR, ErbB2, and ErbB3 = test: Western blot of ErbB family RTK glycosylation, phosphorylation and protein levels in glioma cells; assay type: cell-based
Procedure: In this study, the D54, SKMG3, U251, T98G and 42-MG glioma cell lines were used. The source of D54, SKMG3 and U251 cells has been described previously (Contessa at al., Clin Cancer Res., 16:3205-14 (2010), Lopez et al., Int J Radiat Oncol Biol Phys., 69:214-20 (2007)). The 42-MG and T98G cells were provided by Todd Waldman (Georgetown University) and Dr. Ranjit Bindra (Yale University), respectively. The cells were cultured in DMEM/F12 (D54 and T98G), DMEM (42-MG and U251) or RPMI 1640 (SKMG3)+10% FBS supplemented with penicillin and streptomycin (Gibco, Life Technologies, Grand Island, N.Y., US) in a humidified incubator with 5% CO2, and they were kept in culture no more than 6 months after resuscitation from the original stocks. […] Mycoplasma cell culture contamination was routinely checked and ruled out using a biochemical test (MycoAlert Mycoplasma Detection Kit from Lonza, Rockland, Me. USA). Tunicamycin was purchased from Calbiochem/EMD-millipore (Burlington, Mass., USA). Cetuximab and Erlotinib were purchased at Selleck Chemicals LLC (Houston, Tex., USA). Luciferin was supplied by Promega (Madison, Wis. USA). For in vitro experiments, radiation (XRT) was administered at room temperature using a Precision X-ray 320-kV orthovoltage unit at a dose rate of 2 Gy/45 seconds (PXI X-Ray Systems) with 2 mm aluminum filter. For in vivo studies, radiation was administered at room temperature using a Precision X-ray 250-kV orthovoltage unit at a dose rate of 6.42 Gy/min (PXI X-Ray Systems) with 2 mm aluminum filter. Quality Assurance for both irradiators was performed monthly using a P.T.W. 0.3 cm^3 Ionization Chamber calibrated to NIST standards and quarterly dosimetry using thermoluminescent dosimeter (TLD)-based or ferrous sulfate-based dosimeters.

FGFR1 dependent H1580 = settings: Lopez-Sambrooks et al., Nat Chem Biol. 2016; cited from earlier work
SKMG3-CD8-EGFR cells = test: Phospho-γH2AX foci formation; assay type: cell-based, human
Procedure: as §1
The CD8 cDNA was a gift from Paula Kavathas (Yale University). The CD8-EGFR was constructed according to a strategy that generated a constitutively active IGF-1R (24). […]

SKMG3 cells = test: Cell cycle distribution by flow cytometry; assay type: cell-based, human
Procedure: Cell cycle distribution was determined following treatment with vehicle, radiation and/or 10 uM NGI-1. Cells were trypsinized and centrifuged, washed once with ice-cold PBS, fixed with ice-cold 70% ethanol and stored overnight at −20° C. After washing twice with PBS, they were incubated for 30 minutes at room temperature in 200 μL of Guava Cell Cycle Reagent (Guava Technologies). Cytofluorometric acquisitions were performed on a LSRII cytometer (BD Biosciences). First-line analysis was performed with FlowJo software, upon gating of the events characterized by normal forward and side scatter parameters and discrimination of doublets in a FSC-A vs. FSC-H bivariate plot. Approximately 50,000 cells were analyzed per experiment.

For `Cc1cnc(NC(=O)c2cc(S(=O)(=O)N(C)C)ccc2N2CCCC2)s1` [NGI-1, 5-(dimethylsulfamoyl)-N-(5-methyl-1,3-thiazol-2-yl)-2-(pyrrolidin-1-yl)benzamide], the toxicity [1] is listed as “no significant toxicity”, the “enhancement of phospho-γH2AX foci formation” value (T98G cells) is listed as “no enhancement” and the “increase of phospho-γH2AX foci formation, time course” value (D54 cells; 4 Gy + 10 μM NGI-1, radiation alone 6.4-fold) is listed as 8.6 fold. The “increase of phospho-γH2AX foci formation compared to radiation alone (factor)” value (D54 cells; 2 hours after 4 Gy, 10 μM NGI-1) was 1.3, the “cells in G1 (G1 arrest)” value (PC9-GR2) was 80% and the “cells in G1 (G1 arrest)” value (H1975-OR cells) was 75%. The “cells in G1 (G1 arrest)” value (H1975) was 60%, the “cells in G1 (G1 arrest)” value (PC9-GR1) was 60% and the “cells in G1 (G1 arrest)” value (HCC-827-GR cells) was 75%. The ErbB3 protein levels (EGFR, ErbB2, and ErbB3; D54 and SKMG3 cell lines) was “reduction of ErbB3 protein levels”, the ErbB2 protein levels (EGFR, ErbB2, and ErbB3; SKMG3) was “reduction in ErbB2 protein levels” and the “EGFR protein levels (as cause of reduced EGFR phosphorylation)” value (EGFR, ErbB2, and ErbB3; SKMG3 and D54 cell lines) was “not caused by decreases in EGFR protein levels”. The “glycosylation of EGFR, ErbB2, and ErbB3 (protein gel mobility on western blot)” value (EGFR, ErbB2, and ErbB3; SKMG3 and D54 cell lines) was “reduced glycosylation”, the “phosphorylation of EGFR, ErbB2, and ErbB3” value (EGFR, ErbB2, and ErbB3; SKMG3 and D54 cell lines) was “reduced” and the “sensitivity to OST inhibition with NGI-1” value (FGFR1 dependent H1580) was “sensitive”. The phospho-γH2AX foci formation (SKMG3-CD8-EGFR cells) was “no effect”, the “cells in G1 (G1 arrest)” value (SKMG3 cells; SKMG3, 48 hours of 10 uM NGI-1, control 69%) was 78% and the “cells in G1 six hours after 4 Gy” value (SKMG3 cells; SKMG-3, NGI-1 + 4 Gy, 56% without NGI-1) was 72%.
